According to ChEMBL document CHEMBL4196089, “Design, synthesis, biological evaluation and in vivo testing of dual phosphodiesterase 5 (PDE5) and histone deacetylase 6 (HDAC6)-selective inhibitors for the treatment of Alzheimer's disease” (Eur J Med Chem, 2018):

Legend:
[1] = target: T1, Protein deacetylase HDAC6 (Homo sapiens, UniProt Q9UBN7); test: Inhibition of full length human recombinant N-terminal GST-tagged HDAC6 expressed in baculovirus infected sf9 cells using fluorogenic HDAC substrate 3 after 30 mins by fluorescence assay
T1 sequence (Q9UBN7 whole entry): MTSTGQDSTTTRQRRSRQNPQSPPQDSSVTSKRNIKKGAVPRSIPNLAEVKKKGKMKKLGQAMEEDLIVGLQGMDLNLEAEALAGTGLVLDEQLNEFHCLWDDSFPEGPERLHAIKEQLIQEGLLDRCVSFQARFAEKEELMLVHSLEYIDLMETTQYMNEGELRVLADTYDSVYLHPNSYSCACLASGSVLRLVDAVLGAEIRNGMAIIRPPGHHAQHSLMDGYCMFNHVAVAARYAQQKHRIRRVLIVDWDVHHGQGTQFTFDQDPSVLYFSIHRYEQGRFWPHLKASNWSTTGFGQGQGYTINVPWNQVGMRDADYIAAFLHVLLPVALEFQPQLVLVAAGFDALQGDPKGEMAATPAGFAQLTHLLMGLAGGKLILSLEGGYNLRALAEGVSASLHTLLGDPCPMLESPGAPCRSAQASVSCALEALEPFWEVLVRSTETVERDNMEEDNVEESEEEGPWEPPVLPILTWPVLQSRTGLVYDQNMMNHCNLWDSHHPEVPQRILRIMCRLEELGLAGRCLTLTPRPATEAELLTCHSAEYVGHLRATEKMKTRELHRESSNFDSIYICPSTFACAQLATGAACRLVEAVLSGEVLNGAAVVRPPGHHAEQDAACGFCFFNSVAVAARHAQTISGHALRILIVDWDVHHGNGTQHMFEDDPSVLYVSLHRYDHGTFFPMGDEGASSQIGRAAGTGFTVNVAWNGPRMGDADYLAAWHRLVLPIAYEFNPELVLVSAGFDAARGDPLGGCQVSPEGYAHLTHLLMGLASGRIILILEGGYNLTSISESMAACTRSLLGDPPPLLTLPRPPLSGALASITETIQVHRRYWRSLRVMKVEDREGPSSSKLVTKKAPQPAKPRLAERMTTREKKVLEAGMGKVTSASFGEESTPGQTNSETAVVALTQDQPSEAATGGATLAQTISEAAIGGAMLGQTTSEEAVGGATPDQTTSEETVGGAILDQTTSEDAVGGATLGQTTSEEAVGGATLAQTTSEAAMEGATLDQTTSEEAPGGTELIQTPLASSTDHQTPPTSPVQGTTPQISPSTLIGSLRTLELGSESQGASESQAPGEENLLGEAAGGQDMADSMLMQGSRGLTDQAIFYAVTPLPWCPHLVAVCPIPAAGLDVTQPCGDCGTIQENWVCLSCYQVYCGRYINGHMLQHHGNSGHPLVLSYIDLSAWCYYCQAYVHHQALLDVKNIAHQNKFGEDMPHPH

[2] = target: T2, cGMP-specific 3',5'-cyclic phosphodiesterase (Homo sapiens, UniProt O76074); test: Inhibition of full length human recombinant N-terminal GST-tagged PDE5A1 expressed in baculovirus infected sf9 cells using cGMP as substrate after 30 mins by fluorescence assay
Histone deacetylase 1 [3] = target: T3, Histone deacetylase 1 (Homo sapiens, UniProt Q13547); test: Inhibition of full length human recombinant C-terminal FLAG/His-tagged HDAC1 expressed in baculovirus infected sf9 cells using fluorogenic HDAC substrate 3 after 30 mins by fluorescence assay
T3 sequence (Q13547 whole entry): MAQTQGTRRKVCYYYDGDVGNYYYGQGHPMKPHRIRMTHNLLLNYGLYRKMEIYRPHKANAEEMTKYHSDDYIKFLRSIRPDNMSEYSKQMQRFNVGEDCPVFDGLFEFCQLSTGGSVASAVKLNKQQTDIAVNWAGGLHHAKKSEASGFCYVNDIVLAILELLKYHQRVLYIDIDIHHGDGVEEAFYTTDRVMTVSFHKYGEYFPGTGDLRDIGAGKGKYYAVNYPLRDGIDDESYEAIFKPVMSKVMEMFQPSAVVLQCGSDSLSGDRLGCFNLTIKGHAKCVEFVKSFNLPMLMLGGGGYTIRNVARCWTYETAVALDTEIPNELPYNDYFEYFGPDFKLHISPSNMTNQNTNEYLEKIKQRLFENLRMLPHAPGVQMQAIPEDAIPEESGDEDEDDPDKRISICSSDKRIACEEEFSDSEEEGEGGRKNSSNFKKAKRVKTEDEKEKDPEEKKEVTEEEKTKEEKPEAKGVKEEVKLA

Histone deacetylase 2 [4] = target: T4, Histone deacetylase 2 (Homo sapiens, UniProt Q92769); test: Inhibition of full length human recombinant C-terminal His-tagged HDAC2 expressed in baculovirus infected sf9 cells using fluorogenic HDAC substrate 3 after 30 mins by fluorescence assay
T4 sequence (Q92769 whole entry): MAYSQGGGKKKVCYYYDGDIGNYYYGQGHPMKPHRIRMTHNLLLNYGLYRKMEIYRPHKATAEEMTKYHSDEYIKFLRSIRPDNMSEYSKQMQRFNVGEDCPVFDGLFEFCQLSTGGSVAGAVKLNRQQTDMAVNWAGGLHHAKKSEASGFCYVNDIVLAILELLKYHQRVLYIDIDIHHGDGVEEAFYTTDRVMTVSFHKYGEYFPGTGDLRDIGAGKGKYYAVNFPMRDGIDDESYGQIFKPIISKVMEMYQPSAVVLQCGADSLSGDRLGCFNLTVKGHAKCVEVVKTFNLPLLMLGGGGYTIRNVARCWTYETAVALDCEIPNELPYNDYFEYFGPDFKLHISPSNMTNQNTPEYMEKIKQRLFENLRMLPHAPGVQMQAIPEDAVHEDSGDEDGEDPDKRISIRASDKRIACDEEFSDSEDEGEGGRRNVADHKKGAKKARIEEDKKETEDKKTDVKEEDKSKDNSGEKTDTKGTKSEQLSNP

[5] = target: cGMP-inhibited 3',5'-cyclic phosphodiesterase 3A (Homo sapiens, UniProt Q14432); test: Inhibition of PDE3A (unknown origin) using FAM-cGMP as substrate by fluorescence assay
Chain of cGMP-inhibited 3',5'-cyclic phosphodiesterase 3A (Q14432 whole entry): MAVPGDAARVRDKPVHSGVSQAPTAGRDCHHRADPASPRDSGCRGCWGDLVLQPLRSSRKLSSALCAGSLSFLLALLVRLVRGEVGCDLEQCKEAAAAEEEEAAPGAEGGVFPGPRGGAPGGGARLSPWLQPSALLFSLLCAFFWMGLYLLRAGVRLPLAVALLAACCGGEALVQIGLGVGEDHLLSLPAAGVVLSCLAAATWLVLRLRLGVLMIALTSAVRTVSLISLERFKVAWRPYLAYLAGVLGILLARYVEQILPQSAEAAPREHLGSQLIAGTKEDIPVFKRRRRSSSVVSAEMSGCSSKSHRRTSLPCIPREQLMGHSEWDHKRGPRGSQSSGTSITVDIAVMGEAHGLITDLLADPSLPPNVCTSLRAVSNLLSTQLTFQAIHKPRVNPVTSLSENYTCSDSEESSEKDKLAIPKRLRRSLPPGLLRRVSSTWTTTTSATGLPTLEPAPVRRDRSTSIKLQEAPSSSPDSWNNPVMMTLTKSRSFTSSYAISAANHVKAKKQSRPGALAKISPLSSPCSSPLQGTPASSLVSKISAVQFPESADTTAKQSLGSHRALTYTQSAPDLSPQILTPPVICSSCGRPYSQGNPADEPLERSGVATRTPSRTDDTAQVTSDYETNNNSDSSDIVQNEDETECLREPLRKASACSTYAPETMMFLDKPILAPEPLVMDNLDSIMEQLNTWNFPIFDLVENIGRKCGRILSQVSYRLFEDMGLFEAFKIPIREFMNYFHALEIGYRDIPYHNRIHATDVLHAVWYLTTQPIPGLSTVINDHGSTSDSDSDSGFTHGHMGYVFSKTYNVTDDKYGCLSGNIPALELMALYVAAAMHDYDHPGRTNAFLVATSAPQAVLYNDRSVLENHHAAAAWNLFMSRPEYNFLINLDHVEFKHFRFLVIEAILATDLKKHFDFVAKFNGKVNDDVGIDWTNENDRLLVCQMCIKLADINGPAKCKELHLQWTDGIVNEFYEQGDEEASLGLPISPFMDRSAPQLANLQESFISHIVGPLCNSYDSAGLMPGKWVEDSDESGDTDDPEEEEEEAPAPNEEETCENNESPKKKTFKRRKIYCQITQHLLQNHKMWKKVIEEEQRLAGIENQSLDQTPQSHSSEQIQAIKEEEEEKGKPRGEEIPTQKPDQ

cells [6] = conditions: Homo sapiens, SH-SY5Y, 2 h, read-out: FC
[7] = Cytotoxicity against human THLE2 cells after 72 hrs by vialight cell proliferation assay; format: cell-based, THLE-2; conditions: read-out: LC50
cells [8] = conditions: Homo sapiens, SH-SY5Y, 2 h, read-out: FC; remark: listed apart in the source
cells [9] = conditions: Homo sapiens, SH-SY5Y, 2 h, read-out: FC; remark: listed apart in the source
[10] = target: Histone deacetylase 3/Nuclear receptor corepressor 2 (HDAC3/NCoR2) (Homo sapiens, UniProt O15379); test: Inhibition of full length human recombinant C-terminal His-tagged HDAC3/N-terminal GST-tagged NCOR2 (95 to 489 residues) expressed in baculovirus infected sf9 cells using fluorogenic HDAC substrate 3 after 30 mins by fluorescence assay
Chain of Histone deacetylase 3/Nuclear receptor corepressor 2 (HDAC3/NCoR2) (O15379 whole entry, the tested form may be a part): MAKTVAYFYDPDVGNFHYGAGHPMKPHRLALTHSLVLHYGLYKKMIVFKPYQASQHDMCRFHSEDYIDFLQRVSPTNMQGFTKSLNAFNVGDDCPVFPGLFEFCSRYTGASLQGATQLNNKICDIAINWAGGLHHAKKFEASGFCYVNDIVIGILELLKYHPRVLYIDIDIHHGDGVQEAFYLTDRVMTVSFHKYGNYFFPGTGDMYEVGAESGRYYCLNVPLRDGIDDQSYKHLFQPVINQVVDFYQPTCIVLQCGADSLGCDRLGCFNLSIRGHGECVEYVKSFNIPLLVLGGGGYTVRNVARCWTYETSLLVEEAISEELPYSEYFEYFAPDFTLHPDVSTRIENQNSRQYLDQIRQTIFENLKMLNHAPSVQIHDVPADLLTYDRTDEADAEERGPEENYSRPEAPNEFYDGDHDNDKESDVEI
Chain of Histone deacetylase 3/Nuclear receptor corepressor 2 (HDAC3/NCoR2) (Q9Y618 whole entry, further chain, the tested form may be a part): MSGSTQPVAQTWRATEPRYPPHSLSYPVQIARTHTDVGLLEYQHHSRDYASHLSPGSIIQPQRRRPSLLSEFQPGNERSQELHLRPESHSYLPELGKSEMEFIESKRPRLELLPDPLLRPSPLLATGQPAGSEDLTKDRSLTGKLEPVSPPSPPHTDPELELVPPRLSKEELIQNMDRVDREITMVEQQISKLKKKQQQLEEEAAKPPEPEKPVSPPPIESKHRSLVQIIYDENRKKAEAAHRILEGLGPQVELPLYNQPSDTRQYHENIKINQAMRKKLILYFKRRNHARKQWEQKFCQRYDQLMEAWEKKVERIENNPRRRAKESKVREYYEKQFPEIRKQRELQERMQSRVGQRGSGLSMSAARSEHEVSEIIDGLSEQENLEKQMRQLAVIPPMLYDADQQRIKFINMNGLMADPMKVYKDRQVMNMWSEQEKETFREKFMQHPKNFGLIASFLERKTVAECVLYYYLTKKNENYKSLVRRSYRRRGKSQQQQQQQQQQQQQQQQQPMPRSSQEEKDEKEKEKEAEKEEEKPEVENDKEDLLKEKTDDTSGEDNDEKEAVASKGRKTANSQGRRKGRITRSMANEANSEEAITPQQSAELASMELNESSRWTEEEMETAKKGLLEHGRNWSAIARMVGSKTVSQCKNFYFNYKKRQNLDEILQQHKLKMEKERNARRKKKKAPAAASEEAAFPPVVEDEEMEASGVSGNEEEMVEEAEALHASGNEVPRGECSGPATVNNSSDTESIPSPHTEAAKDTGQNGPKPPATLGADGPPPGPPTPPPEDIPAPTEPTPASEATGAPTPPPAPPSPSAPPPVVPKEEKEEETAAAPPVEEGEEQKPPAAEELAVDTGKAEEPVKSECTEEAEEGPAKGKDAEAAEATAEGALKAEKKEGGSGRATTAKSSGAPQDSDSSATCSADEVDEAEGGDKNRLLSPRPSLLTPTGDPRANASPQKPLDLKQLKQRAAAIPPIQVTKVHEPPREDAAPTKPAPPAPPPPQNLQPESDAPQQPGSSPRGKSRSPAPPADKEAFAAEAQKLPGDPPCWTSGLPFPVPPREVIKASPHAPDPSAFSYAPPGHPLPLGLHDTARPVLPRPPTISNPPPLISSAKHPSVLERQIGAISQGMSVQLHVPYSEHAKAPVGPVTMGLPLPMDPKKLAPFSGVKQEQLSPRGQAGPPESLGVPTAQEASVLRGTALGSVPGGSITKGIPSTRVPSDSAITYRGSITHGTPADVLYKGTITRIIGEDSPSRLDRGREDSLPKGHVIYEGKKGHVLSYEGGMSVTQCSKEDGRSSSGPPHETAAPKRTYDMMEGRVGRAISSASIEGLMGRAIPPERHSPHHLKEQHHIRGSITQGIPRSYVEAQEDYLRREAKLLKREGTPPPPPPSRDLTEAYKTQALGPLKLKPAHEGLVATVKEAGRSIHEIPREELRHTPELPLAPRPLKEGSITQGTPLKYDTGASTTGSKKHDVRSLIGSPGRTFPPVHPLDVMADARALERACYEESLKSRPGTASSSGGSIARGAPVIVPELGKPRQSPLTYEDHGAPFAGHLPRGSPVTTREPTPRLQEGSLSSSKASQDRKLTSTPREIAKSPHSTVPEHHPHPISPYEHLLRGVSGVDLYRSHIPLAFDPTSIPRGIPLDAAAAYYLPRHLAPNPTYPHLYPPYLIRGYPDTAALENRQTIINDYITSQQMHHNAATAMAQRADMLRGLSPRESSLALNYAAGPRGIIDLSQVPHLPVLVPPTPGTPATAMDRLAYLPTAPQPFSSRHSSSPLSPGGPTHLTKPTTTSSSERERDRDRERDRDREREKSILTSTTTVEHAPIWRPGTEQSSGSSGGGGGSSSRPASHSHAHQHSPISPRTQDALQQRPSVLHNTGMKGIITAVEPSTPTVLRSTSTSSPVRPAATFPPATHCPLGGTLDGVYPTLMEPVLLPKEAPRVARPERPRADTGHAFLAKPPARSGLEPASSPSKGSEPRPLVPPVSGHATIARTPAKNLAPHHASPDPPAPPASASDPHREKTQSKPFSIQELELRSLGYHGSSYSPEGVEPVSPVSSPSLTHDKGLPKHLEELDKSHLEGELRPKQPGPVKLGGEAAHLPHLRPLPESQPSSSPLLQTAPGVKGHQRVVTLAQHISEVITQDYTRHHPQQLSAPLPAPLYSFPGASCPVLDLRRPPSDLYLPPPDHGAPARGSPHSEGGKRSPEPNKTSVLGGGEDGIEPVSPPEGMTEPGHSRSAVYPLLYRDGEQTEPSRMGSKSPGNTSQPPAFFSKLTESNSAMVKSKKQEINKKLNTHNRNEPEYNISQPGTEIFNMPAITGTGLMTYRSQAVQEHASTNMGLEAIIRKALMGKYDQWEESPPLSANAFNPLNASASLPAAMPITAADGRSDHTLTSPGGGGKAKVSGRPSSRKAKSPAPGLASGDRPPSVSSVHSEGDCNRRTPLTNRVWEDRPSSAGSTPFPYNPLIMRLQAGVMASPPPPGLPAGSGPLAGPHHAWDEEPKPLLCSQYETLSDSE

[11] = Effective permeability of the compound at 50 uM after 18 hrs by UV spectroscopy based PAMPA; format: ADME; conditions: read-out: Peff
Histone deacetylase 3 = Histone deacetylase 3 (Homo sapiens, UniProt O15379); test: Inhibition of HDAC3 (unknown origin)
Chain of Histone deacetylase 3 (O15379 whole entry): as the sequence (O15379 whole entry, the tested form may be a part) above

Histone deacetylase 1 [12] = target: T3, Histone deacetylase 1; test: Inhibition of HDAC1 (unknown origin)
Histone deacetylase 2 [13] = target: T4, Histone deacetylase 2; format: ADME
[14] = target: T2, cGMP-specific 3',5'-cyclic phosphodiesterase; test: Inhibition of PDE5A (unknown origin)
[15] = target: T1, Protein deacetylase HDAC6; test: Inhibition of HDAC6 (unknown origin)
[16] = Inhibition of class-1 HDAC in human SH-SY5Y cells assessed as induction of AcH3K9 level at 500 nM after 0.5 to 2 hrs by Western blot analysis; format: cell-based; conditions: 0.5 µM

| SMILES | IC50 [1] [nM] | IC50 [2] [nM] | IC50 (Histone deacetylase 1 [3]) [nM] | IC50 (Histone deacetylase 2 [4]) [nM] | fold induction at 0.5 µM (cells [6]) | CC50 at 72 h [7] [nM] | fold induction at 0.1 µM (cells [8]) | fold induction at 1 µM (cells [9]) | Papp at 18 h, 50 µM [11] [×10⁻⁶ cm/s] | further results |
| --- | --- | --- | --- | --- | --- | --- | --- | --- | --- | --- |
| CCCc1nn(C)c2c(=O)[nH]c(-c3cc(C4CCC(C(=O)NO)CC4)ccc3OCC)nc12 (centres undefined) | 3110 | 146 | 8380 | > 20000 |  |  |  |  |  |  |
| CCCc1nn(C)c2c(=O)[nH]c(-c3cc(N4CCC(C(=O)NO)CC4)ccc3OCC)nc12 | 1180 | 36 | 7200 | > 20000 |  |  |  |  |  |  |
| CCCc1nn(C)c2c(=O)[nH]c(-c3cc(CC4CC(C(=O)NO)C4)ccc3OCC)nc12 (centres undefined) |  |  |  |  |  |  |  |  |  | IC50 [5]: 1800 nM |
| CCCc1nn(C)c2c(=O)[nH]c(-c3cc(Cc4ccc(C(=O)NO)cc4)ccc3OCC)nc12 | 62 | 48 | 673 | 3860 | 3.2 | 14200 | 1.1 | 6.5 | 2.16 | IC50 [10]: 1350 nM |
| CCCc1nn(C)c2c(=O)[nH]c(-c3cc(Cc4ccc(C(=O)NO)c(OC)c4)ccc3OCC)nc12 | > 20000 | 144 | > 20000 | > 20000 |  |  |  |  |  |  |
| CCCc1nn(C)c2c(=O)[nH]c(-c3cc(C(=O)c4ccc(C(=O)NO)s4)ccc3OCC)nc12 | 192 | 3 | 276 | 799 |  |  |  |  |  |  |
| CCCc1nn(C)c2c(=O)[nH]c(-c3cc(-c4ccc(CC(=O)NO)cc4)ccc3OCC)nc12 | 815 | 10 | > 20000 | > 20000 | 0.8 | 15400 | 0.6 | 1.2 | 1.97 |  |
| CCCc1nn(C)c2c(=O)[nH]c(-c3cc(-c4ccc(C(=O)NO)s4)ccc3OCC)nc12 | 37 | 7 | 387 | 4800 | 2.5 | 2180 | 1.1 | 2.7 | 2.82 |  |
| CCCc1nn(C)c2c(=O)[nH]c(-c3cc(C(O)c4ccc(C(=O)NO)cc4)ccc3OCC)nc12 (centres undefined) | 89 | 10 | 335 | 1110 |  |  |  |  |  |  |
| CCCc1nc(C)c2c(=O)[nH]c(-c3cc(CC4CC(C(=O)NO)C4)ccc3OCC)nn12 (centres undefined) |  |  |  |  |  |  |  |  |  | IC50 (Histone deacetylase 3): 854 nM; IC50 (Histone deacetylase 1 [12]): 286 nM; IC50 (Histone deacetylase 2 [13]): 1260 nM; IC50 [14]: 5 nM; IC50 [15]: 110 nM |
| CCCc1nn(C)c2c(=O)[nH]c(-c3cc(Cc4ccc(CC(=O)NO)cc4)ccc3OCC)nc12 | 162 | 15 | > 20000 | > 20000 |  | 5490 |  |  | 2.94 | IC50 [10]: > 20000 nM |
| CN1CCc2c(c3ccccc3n2Cc2ccc(C(=O)NO)cc2)C1 [TUBASTATIN A] |  |  |  |  |  | […] |  |  | 1.77 | inhibition (INH) [16]: Not Active |
| CCCc1nc(C)c2c(=O)[nH]c(-c3cc(S(=O)(=O)N4CCN(CC)CC4)ccc3OCC)nn12 |  |  |  |  |  | > 100000 |  |  | 2.14 |  |
| CCCc1nn(C)c2c(=O)[nH]c(-c3cc(Cc4ccc(C(=O)NO)cc4OC)ccc3OCC)nc12 | > 20000 | 47 | > 20000 | > 20000 |  |  |  |  |  |  |
| CCCc1nn(C)c2c(=O)[nH]c(-c3cc([C@H]4CC[C@H](C(=O)NO)CC4)ccc3OCC)nc12 | 5440 | 190 | 10200 | > 20000 |  |  |  |  |  |  |
| CCCc1nn(C)c2c(=O)[nH]c(-c3cc(C4=CCC(C(=O)NO)CC4)ccc3OCC)nc12 (centres undefined) | 340 | 27 | 2880 | > 20000 |  |  |  |  |  |  |
| CCCc1nn(C)c2c(=O)[nH]c(-c3cc(-c4ccc(C(=O)NO)cc4)ccc3OCC)nc12 | 42 | 1 | 326 | 2550 | 1.7 | 8830 | 0.8 | 3.6 | 2.68 |  |
| CCCc1nn(C)c2c(=O)[nH]c(-c3cc(Cc4ccc(C(=O)NO)cc4F)ccc3OCC)nc12 | 87 | 149 | 2030 | 14600 | 1.1 | 16500 | 0.9 | 1.6 | 3.7 |  |
| CCCc1nn(C)c2c(=O)[nH]c(-c3cc(C4=CCC(CC(=O)NO)CC4)ccc3OCC)nc12 (centres undefined) | 217 | 14 | 1810 | > 20000 |  |  |  |  |  |  |
| CCCc1nn(C)c2c(=O)[nH]c(-c3cc(Cc4ccc(C(=O)NO)c(F)c4)ccc3OCC)nc12 | 142 | 31 | 1110 | > 20000 | 2.7 | 3510 | 2 | 1.4 | 2.84 |  |
| CCCc1nn(C)c2c(=O)[nH]c(-c3cc(Nc4ccc(C(=O)NO)cc4)ccc3OCC)nc12 | 66 | 2 | 490 | > 20000 |  |  |  |  |  |  |
| CCCc1nn(C)c2c(=O)[nH]c(-c3cc(S(=O)(=O)N4CCN(C)CC4)ccc3OCC)nc12 |  |  |  |  |  | > 100000 |  |  |  |  |
| CCCc1nn(C)c2c(=O)[nH]c(-c3cc(C(OC)c4ccc(C(=O)NO)cc4)ccc3OCC)nc12 (centres undefined) | 77 | 20 | 357 | 1110 |  |  |  |  |  |  |
| CCCc1nn(C)c2c(=O)[nH]c(-c3cc(Cc4ccc(C(=O)NO)o4)ccc3OCC)nc12 | 168 | 3 | 2230 | 17500 |  |  |  |  |  | IC50 [10]: > 20000 nM |
| CCCc1nn(C)c2c(=O)[nH]c(-c3cc(OCc4ccc(C(=O)NO)cc4)ccc3OCC)nc12 | 33 | 79 | 1080 | 11400 |  |  |  |  |  |  |
| CCCc1nn(C)c2c(=O)[nH]c(-c3cc([C@H]4CC[C@@H](C(=O)NO)CC4)ccc3OCC)nc12 | 48 | 53 | 937 | > 20000 | 1.8 | 16000 | 0.7 | 5.4 | 1.68 |  |
| CCCc1nc(C)c2c(=O)[nH]c(-c3cc(Cc4ccc(C(=O)NO)cc4)ccc3OCC)nn12 | 256 | 13 | 1830 | 5190 | 0.9 | 26700 | 0.4 | 1.3 | 1.86 |  |
| CCCc1nc(C)c2c(=O)[nH]c(-c3cc(Cc4ccc(C(=O)NO)s4)ccc3OCC)nn12 | 98 | 3 | 793 | 4390 | 0.9 | 6940 | 0.7 | 0.8 | 1.6 |  |
